Publication PMC7539012, “Hyperphosphorylated tau aggregation and cytotoxicity modulators screen identified prescription drugs linked to Alzheimer's disease and cognitive functions” (Scientific Reports, 2020)
Counter-ions that a name gives are not always drawn.

Tested on: T1, 1N4R p-tau
T1 construct: made in house; host or cells: E. coli (PIMAX system)
Assay: p-tau aggregation modulator screen of 1280-compound library (ThS fluorescence net change over 16 h);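 also: 30 µM compound with 6 µM p-tau over 16 h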
Assay type: biochemical
Details: not given

Point of comparison: `N[C@@H]1C[C@H]1c1ccccc1` [Tranylcypromine hydrochloride], ThS net change 377. Against it:
- CCC1(C)CC(=O)NC(=O)C1 [Bemegride] — higher, 431
- C#C[C@]1(O)CC[C@H]2[C@@H]3CCC4=CC(=O)CC[C@]4(C)[C@H]3CC[C@@]21C [Ethisterone] — higher, 490
- COc1cc(C)c(/C=C/C(C)=C/C=C/C(C)=C/C(=O)O)c(C)c1C [Acitretin] — lower, 316
- CC(COc1ccccc1)N(CCCl)Cc1ccccc1 (stereo not shown) [Phenoxybenzamine hydrochloride] — higher, 560
- COc1ccc(CCN)cc1OC.Cl [Homoveratrylamine] — higher, 439
- Clc1ccc(COC(Cn2ccnc2)c2ccc(Cl)cc2Cl)cc1 (stereo not shown) [Econazole nitrate] — lower, 309

Same assay, conditions: 1280-compound library screen; ThS fluorescence net change over 16 h

Point of comparison: `Cc1c(N)c(=O)n(-c2ccccc2)n1C` [Ampyrone], ThS net change 388. Against it:
- CN(N=O)C(=O)N[C@H]1C(O)O[C@H](CO)[C@@H](O)[C@@H]1O (mixture of isomers) [Streptozotocin] — lower, 384
- Cc1cc(O)c(C(=O)N[C@@H](C(=O)N[C@@H]2C(=O)N3C(C(=O)O)=C(CSc4nnnn4C)CS[C@H]23)c2ccc(O)cc2)cn1 [Cefpiramide] — higher, 407
- O=C1c2ccccc2C(=O)C1c1ccccc1 [Phenindione] — lower, 378
- CC1(C)O[C@@H]2C[C@H]3[C@@H]4C[C@H](F)C5=CC(=O)C=C[C@]5(C)[C@H]4[C@@H](O)C[C@]3(C)[C@]2(C(=O)CO)O1 [Flunisolide] — lower, 378
- NC(=O)NC1NC(=O)NC1=O (stereo not shown) [Allantoin] — higher, 390
- Nc1ccc(S(=O)(=O)Nc2ccccn2)cc1 [Sulfapyridine] — higher, 394
- C[C@H]1NC(=O)NC1=O [Methylhydantoin-5-(D)] — lower, 384
- CC1(C)S[C@@H]2[C@H](NC(=O)[C@H](NC(=O)N3CCNC3=O)c3ccccc3)C(=O)N2[C@H]1C(=O)O [Azlocillin sodium salt] — higher, 396
- O=c1[nH]c2ccccc2n1CCCN1CCC(n2c(=O)[nH]c3cc(Cl)ccc32)CC1 [Domperidone] — higher, 392
- COc1ccc(Cl)cc1C(=O)NCCc1ccc(S(=O)(=O)NC(=O)NC2CCCCC2)cc1 [Glibenclamide] — higher, 391
- Nc1ccc(S(=O)(=O)Nc2ncccn2)cc1 [Sulfadiazine] — lower, 379
- O=C([O-])CCNC(=O)c1ccc(/N=N/c2ccc(O)c(C(=O)[O-])c2)cc1.[Na+].[Na+] [Balsalazide Sodium] — higher, 399
- CCCCC[C@H](O)/C=C/[C@@H]1[C@@H](C/C=C\CCCC(=O)O)[C@@H](O)C[C@H]1O [Dinoprost trometamol] — lower, 384
- Nc1c2c(nc3ccccc13)CCCC2 [Tacrine hydrochloride] — higher, 405
- CN1CCCCC1CCN1c2ccccc2Sc2ccc([S+](C)[O-])cc21 (stereo not shown) [Mesoridazine besylate] — higher, 391
- Oc1ccc(OCc2ccccc2)cc1 [Monobenzone] — lower, 382
- COc1cc(N)c(Cl)cc1C(=O)NC1CCN(CCCOc2ccc(F)cc2)CC1OC (stereo not shown) [Cisapride] — higher, 397
- COC(=O)Nc1nc2ccc(C(=O)c3cccs3)cc2[nH]1 [Nocodazole] — higher, 409
- CCN(CC)CC#CCOC(=O)C(O)(c1ccccc1)C1CCCCC1 (stereo not shown) [Oxybutynin chloride] — higher, 400
- COc1cc(NS(=O)(=O)c2ccc(N)cc2)nc(OC)n1 [Sulfadimethoxine] — lower, 380

Same assay, conditions: 1280-compound library screen; […]

Point of comparison: `CC(O)(P(=O)([O-])O)P(=O)([O-])O.[Na+].[Na+]` [Etidronic acid, disodium salt], ThS net change 392. Against it:
- CC(Cc1ccc(O)cc1)NCC(O)c1cc(O)cc(O)c1 (stereo not shown) [Fenoterol hydrobromide] — higher, 405
- CC(Oc1ccccc1)C(=O)N[C@@H]1C(=O)N2[C@@H]1SC(C)(C)[C@@H]2C(=O)[O-].[K+] (stereo partly shown) [Phenethicillin potassium salt] — lower, 387
- C[C@]12CC[C@@H]3c4ccc(OC(=O)N(CCCl)CCCl)cc4CC[C@H]3[C@@H]1CC[C@@H]2O [Estramustine] — higher, 407
- Molsidomine — higher, 401

Same assay, conditions: library screen, ThS fluorescence net change over 16 h with p-tau

Point of comparison: `CN(Cc1cnc2nc(N)nc(N)c2n1)c1ccc(C(=O)N[C@@H](CCC(=O)O)C(=O)O)cc1` [Methotrexate], ThS net change 326. Against it:
- Clc1ccc(C(Cn2ccnc2)OCc2c(Cl)cccc2Cl)c(Cl)c1 (stereo not shown) [Isoconazole] — lower, 296
- O=C(Nc1cccc2c(=O)cc(-c3nnn[nH]3)oc12)c1ccc(OCCCCc2ccccc2)cc1 [Pranlukast] — lower, 288
- O=C1CN(/N=C/c2ccc(-c3ccc([N+](=O)[O-])cc3)o2)C([O-])=N1.[Na+] [Dantrolene sodium salt] — lower, 286
- CN1CCC[C@@H]1CCO[C@](C)(c1ccccc1)c1ccc(Cl)cc1 [Clemastine fumarate] — lower, 268
- CCCCCCCCCCCCCCCC[N+](C)(C)CCN(Cc1ccc(OC)cc1)c1ncccn1 [Thonzonium bromide] — lower, 312
- CC1CC(OC(=O)c2ccccc2O)CC(C)(C)C1 (stereo not shown) [Homosalate] — lower, 279
- COc1ccc(CN(CCN(C)C)c2ccccn2)cc1 [Pyrilamine maleate] — lower, 298

Same assay, conditions: p-tau aggregation modulator screen of 1280-compound library; ThS fluorescence net change

Point of comparison: `O=C1NCC2(CCN(CCc3ccccc3)CC2)O1` [Fenspiride hydrochloride], ThS net change 362. Against it:
- CC(C)(C)NCC(O)c1cc(O)cc(O)c1.CC(C)(C)NCC(O)c1cc(O)cc(O)c1.O=S(=O)(O)O (stereo not shown) [Terbutaline hemisulfate] — lower, 339
- COc1ccc2c(c1)c(CC(=O)OCC(=O)O)c(C)n2C(=O)c1ccc(Cl)cc1 [Acemetacin] — lower, 349
- NS(=O)(=O)c1cc2c(cc1C(F)(F)F)NC(Cc1ccccc1)NS2(=O)=O (stereo not shown) [Bendroflumethiazide] — lower, 357
- CC1(C)S[C@@H]2[C@H](NC(=O)[C@H](N)c3ccccc3)C(=O)N2[C@H]1C(=O)O [Ampicillin trihydrate] — lower, 355
- O=C(O)c1cn(-c2ccc(F)cc2)c2cc(N3CCNCC3)c(F)cc2c1=O [Sarafloxacin] — lower, 332
- CC(=O)[C@H]1CC[C@H]2[C@@H]3CCC4=CC(=O)CC[C@]4(C)[C@H]3CC[C@]12C [Progesterone] — lower, 336
- c1ccc([C@H]2CN3CCSC3=N2)cc1 [Levamisole hydrochloride] — higher, 376
- Nc1nc2c(ncn2COCCO)c(=O)[nH]1 [Acyclovir] — higher, 367
- COC(=O)C1=C(C)NC(C)=C(C(=O)OCCN(C)Cc2ccccc2)C1c1cccc([N+](=O)[O-])c1 (stereo not shown) [Nicardipine hydrochloride] — lower, 330
- O=C(N[C@H](CO)[C@H](O)c1ccc([N+](=O)[O-])cc1)C(Cl)Cl [Chloramphenicol] — lower, 344
- C/C(=C(\CCOP(=O)(O)O)SC(=O)c1ccccc1)N(C=O)Cc1cnc(C)nc1N [Benfotiamine] — higher, 375
- Nc1ccc(S(=O)(=O)NC(=O)c2ccccc2)cc1 [Sulfabenzamide] — lower, 347
- CN(C(=O)CN(CCO)CC(=O)N(C)C(C)(C)Cc1ccccc1)C(C)(C)Cc1ccccc1 [Oxethazaine] — lower, 329
- CC(C)NC[C@@H](O)c1ccc(O)c(O)c1.O=C(O)C(O)C(O)C(=O)O [(+)-Isoproterenol (+)-bitartrate salt] — lower, 345

Same assay, conditions: p-tau aggregation modulator screen of 1280-compound library; […]

Point of comparison: `O.O=C(O)C(O)C(O)C(=O)O.O=C(c1ccc(F)cc1)C1CCN(CCn2c(=O)[nH]c3ccccc3c2=O)CC1` [Ketanserin tartrate hydrate], ThS net change 354. Against it:
- CCCC(C)C1(CC)C(=O)NC(=O)NC1=O (stereo not shown) [Pentobarbital] — the same, 354
- COP(=O)(OC)C(O)C(Cl)(Cl)Cl (stereo not shown) [Trichlorfon] — lower, 340
- COc1cccc([C@@]2(O)CCCC[C@@H]2CN(C)C)c1.Cl [Tramadol hydrochloride] — higher, 373

Same assay, conditions: p-tau aggregation modulator screen of the compound library, ThS fluorescence net change

Point of comparison: `CC(=O)O[C@]1(C(C)=O)CC[C@H]2[C@@H]3C=C(C)C4=CC(=O)CC[C@@H]4[C@H]3CC[C@@]21C` [Nomegestrol acetate], ThS net change 463. Against it:
- CN1CCN(c2c(F)cc3c(=O)c(C(=O)O)cn4c3c2SCC4)CC1 [Rufloxacin] — higher, 476
- CC[C@H](C)C(=O)O[C@H]1CCC=C2C=C[C@H](C)[C@H](CC[C@@H]3C[C@@H](O)CC(=O)O3)[C@H]21 [Mevastatin] — higher, 497
- Cn1c(=O)c2c(ncn2CC2OCCO2)n(C)c1=O [Doxofylline] — lower, 451
- Clc1ccc(C(c2ccccc2Cl)C(Cl)Cl)cc1 (stereo not shown) [Mitotane] — lower, 449
- CN1CCN(c2c(F)cc3c(=O)c(C(=O)O)cn(CCF)c3c2F)CC1 [Fleroxacin] — lower, 424
- CC[C@H]1OC(=O)[C@H](C)[C@@H](O[C@H]2C[C@@](C)(OC)[C@@H](O)[C@H](C)O2)[C@H](C)[C@@H](O[C@@H]2O[C@H](C)C[C@H](N(C)C)[C@H]2O)[C@](C)(OC)C[C@@H](C)C(=O)[C@H](C)[C@@H](O)[C@]1(C)O [Clarithromycin] — lower, 416
- C[N+](C)(C)CCOC(N)=O [Carbachol] — lower, 440
- Cc1ccc(S(=O)(=O)NC(=O)NN2CCCCCC2)cc1 [Tolazamide] — lower, 458
- CC(C)(C)C(=O)OCOC(=O)[C@@H]1N2C(=O)[C@@H](/N=C/N3CCCCCC3)[C@H]2SC1(C)C [Pivmecillinam hydrochloride] — lower, 423
- CC(C[N+](C)(C)C)OC(N)=O (stereo not shown) [Bethanechol chloride] — lower, 418
- c1coc(CNc2ncnc3nc[nH]c23)c1 [6-Furfurylaminopurine] — lower, 413
- CN(C)CCCSC(=N)N.Cl.Cl [Dimaprit dihydrochloride] — lower, 436
- CCCCc1nc(Cl)c(CO)n1Cc1ccc(-c2ccccc2-c2nn[nH]n2)cc1 [Losartan] — higher, 468
- NC1CCN(c2c(F)cc3c(=O)c(C(=O)O)cn(C4CC4)c3c2Cl)C1 (stereo not shown) [Clinafloxacin] — lower, 433
- CC(C)(C#N)c1cc(Cn2cncn2)cc(C(C)(C)C#N)c1 [Anastrozole] — higher, 484
